Data from publication PMC5394417, “Investigating the molecular mechanism of positive and negative allosteric modulators in the calcium-sensing receptor dimer” (Scientific Reports, 2017).

Target: T1, HA-D190A CaSR mutant (Rattus norvegicus, UniProt P48442, D190A)
T1 construct: mGluR5 signal peptide (N); expressed in transfected cells; host or cells: HEK293T
T1 sequence (P48442 20-1079 D190A): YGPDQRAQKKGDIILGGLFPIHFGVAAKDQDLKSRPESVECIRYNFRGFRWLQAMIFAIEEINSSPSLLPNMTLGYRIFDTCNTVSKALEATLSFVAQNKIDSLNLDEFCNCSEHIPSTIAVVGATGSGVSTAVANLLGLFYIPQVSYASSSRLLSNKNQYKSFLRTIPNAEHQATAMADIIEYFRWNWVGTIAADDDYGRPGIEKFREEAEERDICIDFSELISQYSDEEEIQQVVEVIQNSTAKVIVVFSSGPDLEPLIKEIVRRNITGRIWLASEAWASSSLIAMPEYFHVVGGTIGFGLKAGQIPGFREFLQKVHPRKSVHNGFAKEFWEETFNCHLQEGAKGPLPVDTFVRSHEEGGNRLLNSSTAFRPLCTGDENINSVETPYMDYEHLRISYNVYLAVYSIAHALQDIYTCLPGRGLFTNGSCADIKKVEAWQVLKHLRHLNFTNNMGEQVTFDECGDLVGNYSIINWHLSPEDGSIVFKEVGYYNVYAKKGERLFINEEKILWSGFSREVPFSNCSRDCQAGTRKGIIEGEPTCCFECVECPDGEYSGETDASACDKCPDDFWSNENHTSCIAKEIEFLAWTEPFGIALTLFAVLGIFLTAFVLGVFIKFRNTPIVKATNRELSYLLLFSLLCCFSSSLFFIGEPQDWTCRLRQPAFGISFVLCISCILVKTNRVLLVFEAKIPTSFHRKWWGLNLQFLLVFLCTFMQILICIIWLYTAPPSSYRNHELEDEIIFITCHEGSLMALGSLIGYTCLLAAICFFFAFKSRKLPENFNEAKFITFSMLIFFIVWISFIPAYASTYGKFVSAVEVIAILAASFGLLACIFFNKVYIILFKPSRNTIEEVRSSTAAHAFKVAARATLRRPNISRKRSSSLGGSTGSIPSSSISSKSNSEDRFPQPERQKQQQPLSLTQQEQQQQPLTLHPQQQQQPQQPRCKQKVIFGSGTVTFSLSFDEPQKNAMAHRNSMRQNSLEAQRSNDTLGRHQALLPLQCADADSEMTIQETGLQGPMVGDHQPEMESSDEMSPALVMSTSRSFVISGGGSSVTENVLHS
Test: IP-One assay, HEK293T transiently transfected
Format: cell-based

[Ca+2] [Ca^2+]
EC50 (Ca^2+ alone): 17.8 mM
Hill coefficient ± S.E.M. (Ca^2+ alone): 3.77 ± 0.39
pEC50 ± S.E.M. (Ca^2+ alone): 1.75 ± 0.01
Max ± S.E.M. (normalized to maximum response of WT CaSR): 110 ± 11%
